Measurements reported in patent US11242337B2, “Compounds useful for treating gastrointestinal tract disorders” (Ardelyx, Inc., priority 2017, dated 2022).

Experiments:
NHE3 = biological target: T1, NHE3 (Homo sapiens, UniProt P48764); assay: Cell-based assay of NHE-3 activity (persistent inhibition), human; conditions: human Persistence, 60 min incubation then washout
T1 construct: expressed in transfected cells
T1 sequence (P48764 26-834): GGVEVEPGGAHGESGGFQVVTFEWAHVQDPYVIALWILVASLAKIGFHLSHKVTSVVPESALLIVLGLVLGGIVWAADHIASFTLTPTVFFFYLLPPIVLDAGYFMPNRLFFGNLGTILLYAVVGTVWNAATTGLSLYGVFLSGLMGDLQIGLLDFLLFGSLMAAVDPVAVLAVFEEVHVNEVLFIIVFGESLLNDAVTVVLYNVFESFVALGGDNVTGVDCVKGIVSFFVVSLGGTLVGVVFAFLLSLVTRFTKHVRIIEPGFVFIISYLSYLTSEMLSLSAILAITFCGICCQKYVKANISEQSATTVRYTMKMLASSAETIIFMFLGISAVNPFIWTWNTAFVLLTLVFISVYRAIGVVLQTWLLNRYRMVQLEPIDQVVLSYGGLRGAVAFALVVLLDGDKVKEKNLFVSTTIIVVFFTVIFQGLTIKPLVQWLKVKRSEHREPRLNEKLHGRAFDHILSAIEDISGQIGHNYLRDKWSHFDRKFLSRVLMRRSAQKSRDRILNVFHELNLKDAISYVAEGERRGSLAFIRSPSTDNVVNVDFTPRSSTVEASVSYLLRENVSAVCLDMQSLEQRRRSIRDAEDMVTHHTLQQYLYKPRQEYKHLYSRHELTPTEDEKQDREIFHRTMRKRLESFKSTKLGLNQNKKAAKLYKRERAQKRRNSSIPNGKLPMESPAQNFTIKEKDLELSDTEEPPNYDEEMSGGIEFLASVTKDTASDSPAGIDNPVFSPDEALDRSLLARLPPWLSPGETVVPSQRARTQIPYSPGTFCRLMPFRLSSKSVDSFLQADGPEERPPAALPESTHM
T1 sequence (Q99653 2-195 partner limits assumed): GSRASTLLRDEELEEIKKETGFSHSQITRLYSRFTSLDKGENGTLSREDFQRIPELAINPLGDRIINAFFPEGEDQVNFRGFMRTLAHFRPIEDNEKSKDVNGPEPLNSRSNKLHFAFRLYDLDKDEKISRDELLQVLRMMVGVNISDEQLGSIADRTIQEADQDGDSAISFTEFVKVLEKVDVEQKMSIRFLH
Summary of the method: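 Persistent inhibition: compound (0-30 μM, 60 min, RT, NaCl-HEPES pH 7.4) removed before assay. Human NHE3/NHERF2 PS120 cells were then BCECF-loaded during NH4Cl pulse (30 min, 37 °C), acidified in Na+-free buffer, and Na+ added 10 min after washout; antiport measured as initial fluorescence-ratio change per minute.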

[1] = test system: human ileum monolayer culture; assay: Sustained inhibition of apical acid secretion in human organoid monolayer cell cultures (ileum); format: cell-based; conditions: Homo sapiens, 48 h; 1 μM apical, dosed day 6, apical media pH day 8, vs DMSO
Summary of the method: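 Human ileum organoid-derived Transwell monolayers, differentiated with ENRA from day 3, received 1 μM compound apically on day 6 (DMSO vehicle, duplicate wells). Apical medium pH was measured by electrode on day 8 as a readout of sustained NHE3-mediated proton secretion inhibition.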

Compound | % inhibition (NHE3) | pIC50 (NHE3) | inhibition at 1 µM [1]
Cc1cc(S(=O)(=O)N2CC[C@@H](COCCOCCNC(=O)NCCCCNC(=O)NCCOCCOC[C@@H]3CCN(S(=O)(=O)c4ccc(O[C@H]5c6cc(Cl)cc(Cl)c6C[C@@H]5N(C)C)c(C)c4)C3)C2)ccc1O[C@H]1c2cc(Cl)cc(Cl)c2C[C@@H]1N(C)C [Example 45, 3-[2-(2-[[(3R)-1-[(4-[[(1S,2S)-4,6-Dichloro-2-(dimethylamino)-2,3-dihydro-1H-inden-1-yl]oxy]-3-methylbenzene)sulfonyl]pyrrolidin-3-yl]methoxy]ethoxy)ethyl]-1-[4-([[2-(2[[(3R)-1-[(4-[[(1S,2S)-4,6-dichloro-2-(dimethylamino)-2,3-dihydro-1H-inden-1-yl]oxy]-3-methylbenzene)sulfonyl]pyrrolidin-3-yl]methoxy]ethoxy)ethyl]carbamoyl]amino)butyl]urea; bis(trifluoroacetic acid)] | C (>70%) | C (NHE3 pIC50 > 7) | 50 to 70%
Cc1cc(S(=O)(=O)N2CC[C@@H](COc3ccnc(CNC(=O)NCCCCNC(=O)NCc4cc(OC[C@@H]5CCN(S(=O)(=O)c6ccc(O[C@H]7c8cc(Cl)cc(Cl)c8C[C@@H]7N(C)C)c(C)c6)C5)ccn4)c3)C2)ccc1O[C@H]1c2cc(Cl)cc(Cl)c2C[C@@H]1N(C)C [Example 49, 3-[(4-[[(3R)-1-[(4-[[(1S,2S)-4,6-Dichloro-2-(dimethylamino)-2,3-dihydro-1H-inden-1-yl]oxy]-3-methylbenzene)sulfonyl]pyrrolidin-3-yl]methoxy]pyridin-2-yl)methyl]-1-[4-([[(4-[[(3R)-1-[(4-[[(1S,2S)-4,6-dichloro-2-(dimethylamino)-2,3-dihydro-1H-inden-1-yl]oxy]-3-methylbenzene)sulfonyl]pyrrolidin-3-yl]methoxy]pyridin-2-yl)methyl]carbamoyl]amino)butyl]urea] | C (>70%) | C (NHE3 pIC50 > 7) | > 70%
Cc1cc(S(=O)(=O)N[C@H]2CCN(CCOCCNC(=O)NCCCCNC(=O)NCCOCCN3CC[C@H](NS(=O)(=O)c4ccc(O[C@H]5c6cc(Cl)cc(Cl)c6C[C@@H]5N(C)C)c(C)c4)C3)C2)ccc1O[C@H]1c2cc(Cl)cc(Cl)c2C[C@@H]1N(C)C [Example 52, 3-(2-[2-[(3S)-3-[(4-[[(1S,2S)-4,6-Dichloro-2-(dimethylamino)-2,3-dihydro-1H-inden-1-yl]oxy]-3-methylbenzene)sulfonamido]pyrrolidin-1-yl]ethoxy]ethyl)-1-(4-[[(2-[2-[(3S)-3-[(4-[[(1S,2S)-4,6-dichloro-2-(dimethylamino)-2,3-dihydro-1H-inden-1-yl]oxy]-3-methylbenzene)sulfonamido]pyrrolidin-1-yl]ethoxy]ethyl)carbamoyl]amino]butyl)urea] | C (>70%) | C (NHE3 pIC50 > 7) | > 70%
Cc1cc(S(=O)(=O)N[C@@H]2CCN(CCOCCNC(=O)NCCCCNC(=O)NCCOCCN3CC[C@@H](NS(=O)(=O)c4ccc(O[C@H]5c6cc(Cl)cc(C#N)c6C[C@@H]5N(C)C)c(C)c4)C3)C2)ccc1O[C@H]1c2cc(Cl)cc(C#N)c2C[C@@H]1N(C)C [Example 55, 3-(2-[2-[(3R)-3-[(4-[[(1S,2S)-6-Chloro-4-cyano-2-(dimethylamino)-2,3-dihydro-1H-inden-1-yl]oxy]-3-methylbenzene)sulfonamido]pyrrolidin-1-yl]ethoxy]ethyl)-1-(4-[[(2-[2-[(3R)-3-[(4-[[(1S,2S)-6-chloro-4-cyano-2-(dimethylamino)-2,3-dihydro-1H-inden-1-yl]oxy]-3-methylbenzene)sulfonamido]pyrrolidin-1-yl]ethoxy]ethyl)carbamoyl]amino]butyl)urea] | C (>70%) |  | < 50%
